Reference: patent US20090258098A1, “PENETRATING CARRIER, ANTIFUNGAL COMPOSITION USING THE SAME AND METHOD FOR TREATMENT OF DERMATOPHYTE INFECTIONS” (priority 2008, published 2009)

What was measured:
Trichopyton rubrum = experiment: Minimum inhibitory concentration, poison media procedure; format: cell-based, Trichophyton rubrum
Procedure: (§1) Each individual essential oil component was mixed with molten modified Sabouraud agar in 100 ppm, 500 ppm, or 1000 ppm (v/v). The poison media agar was then poured and allowed to cool for at least 48 hours. Separate cultures of four dermatophytes (i.e.: E. floccosum, M. gypseum, T. mentagrophytes, and T. rubrum) were grown on modified Sabouraud agar for four days until a confluent mat of mycelium developed. The four cultures were then cut into 8 mm plugs and placed upside down with the fungi culture on the surface of the poison media. This procedure was run in triplicate. In addition, several mixtures containing various combinations of the essential oil components were tested using the same procedure. The plates were incubated for one week at 30° C. Plates were then examined for growth. Plates with no visible growth after one week on the poison media were listed as fungistatic
(§2) Plugs showing no growth on the poison media were then transferred to modified SDA, allowed to incubate for an additional week at 30° C., and then reexamined for growth. All components were run in triplicate. Plates with no growth after the additional week were listed as fungicidal.

Epidermophyton floccosum = experiment: as above; format: cell-based
Procedure: as §1, §2

Microsporum gypseum = experiment: as above; format: cell-based
Procedure: as §1, §2

[1] = tested on: Trichophyton mentagrophytes; experiment: as above; format: cell-based
Procedure: as §1, §2

[2] = tested on: dermatophytic fungal strains; experiment: Disk assay of essential oil components; format: cell-based; conditions: disk loaded with 500, 1000, 1500 or 3000 ppm
Procedure: Various embodiments of the penetrating carrier system of the present invention were tested for their antimicrobial/biostatic potential by a laboratory test method, which provides a qualitative and semi-qualitative procedure for the evaluation of antimicrobial activity by disk assay. All dermatophytic fungal strains (Table 1) were grown on modified Sabouraud agar (pH adjusted to 7). The cultures were grown for one week previous to the experiments at 30° C., while stock culture plates were maintained at 4° C. until needed. […] The sterile disk was then loaded with 500 ppm, 1000 ppm, 1500 ppm or 3000 ppm of the test compound. A control was provided by placing 2 ul of alcohol on plates that were inoculated for this purpose. The plates were incubated for seven (7) days at 30° C. The zone of inhibition was measured around each loaded disk in four directions. The average measurement was then determined and recorded in millimeters as the zone of inhibition.

[3] = tested on: four dermatophytes (E. floccosum, M. gypseum, T. mentagrophytes, and T. rubrum); experiment: Poison media procedure; format: cell-based; conditions: 100 ppm
Procedure: as §1, §2

[4] = 100 ppm (v/v) in modified Sabouraud agar, one week at 30° C.
[5] = 500 ppm (v/v) in modified Sabouraud agar, one week at 30° C.
[6] = 1000 ppm (v/v) in modified Sabouraud agar, one week at 30° C.

| Structure (SMILES) | Growth on poison media (fungistatic / fungicidal / growth) (Trichopyton rubrum; [4]) | Growth on poison media (fungistatic / fungicidal / growth) (Trichopyton rubrum; [5]) | Growth on poison media (fungistatic / fungicidal / growth) (Trichopyton rubrum; [6]) | Growth on poison media (fungistatic / fungicidal / growth) (Epidermophyton floccosum; [4]) | Growth on poison media (fungistatic / fungicidal / growth) (Epidermophyton floccosum; [5]) | Growth on poison media (fungistatic / fungicidal / growth) (Epidermophyton floccosum; [6]) | Growth on poison media (fungistatic / fungicidal / growth) (Microsporum gypseum; [4]) | Growth on poison media (fungistatic / fungicidal / growth) (Microsporum gypseum; [5]) | Growth on poison media (fungistatic / fungicidal / growth) (Microsporum gypseum; [6]) | Growth on poison media (fungistatic / fungicidal / growth) [1, 4] | Growth on poison media (fungistatic / fungicidal / growth) [1, 5] | Growth on poison media (fungistatic / fungicidal / growth) [1, 6] | Rank among essential oil components in the disk assay [2] | Inhibition of growth [3] | other results |
| --- | --- | --- | --- | --- | --- | --- | --- | --- | --- | --- | --- | --- | --- | --- | --- |
| CC(C)=CCCC(C)=CC=O [Citral] | [empty] | [empty] | fungicidal | [empty] | [empty] | [empty] | [empty] | [empty] | fungicidal | [empty] | [empty] | fungistatic | most inhibitory | – | – |
| O=CC=Cc1ccccc1 [Cinnamaldehyde] | [empty] | fungicidal | fungicidal | [empty] | fungicidal | fungicidal | [empty] | fungicidal | fungicidal | [empty] | [empty] | fungicidal | most inhibitory | – | – |
| Cc1ccc(C(C)C)cc1O [Carvacrol] | fungistatic | fungicidal | fungicidal | [empty] | fungicidal | fungicidal | fungistatic | fungicidal | fungicidal | [empty] | fungicidal | fungicidal | most inhibitory | inhibit the growth of several organisms | – |
| Cc1ccc(C(C)C)c(O)c1 [Thymol] | fungicidal | fungicidal | fungicidal | fungistatic | fungicidal | fungicidal | fungistatic | fungicidal | fungicidal | fungistatic | fungicidal | fungicidal | most inhibitory | inhibit the growth of several organisms | – |
| C=CCc1ccc(O)c(OC)c1 [Eugenol] | [empty] | fungistatic | fungicidal | [empty] | fungicidal | fungicidal | [empty] | fungicidal | fungicidal | [empty] | fungistatic | fungistatic | most inhibitory | – | – |
| C=CCc1ccc(OC)c(OC)c1 [Methyl Eugenol] | – | – | – | – | – | – | – | – | – | – | – | – | – | – | Growth on poison media (fungistatic / fungicidal / growth) (Trichopyton rubrum; 168 h, 100 ppm): [empty]; Growth on poison media (fungistatic / fungicidal / growth) (Trichopyton rubrum; 168 h, 500 ppm): fungistatic; Growth on poison media (fungistatic / fungicidal / growth) (Trichopyton rubrum; 168 h, 1000 ppm): fungistatic; Growth on poison media (fungistatic / fungicidal / growth) (Epidermophyton floccosum; 168 h, 100 ppm): [empty]; Growth on poison media (fungistatic / fungicidal / growth) (Epidermophyton floccosum; 168 h, 500 ppm): fungistatic; Growth on poison media (fungistatic / fungicidal / growth) (Epidermophyton floccosum; 168 h, 1000 ppm): fungistatic; Growth on poison media (fungistatic / fungicidal / growth) (Microsporum gypseum; 168 h, 100 ppm): [empty]; Growth on poison media (fungistatic / fungicidal / growth) (Microsporum gypseum; 168 h, 500 ppm): fungistatic; Growth on poison media (fungistatic / fungicidal / growth) (Microsporum gypseum; 168 h, 1000 ppm): fungistatic; Growth on poison media (fungistatic / fungicidal / growth) ([1]; 168 h, 100 ppm): [empty]; Growth on poison media (fungistatic / fungicidal / growth) ([1]; 168 h, 500 ppm): fungistatic; Growth on poison media (fungistatic / fungicidal / growth) ([1]; 168 h, 1000 ppm): fungistatic |
